Test results as given in publication PMC4795541, “A Rapid and Quantitative Flow Cytometry Method for the Analysis of Membrane Disruptive Antimicrobial Activity” (PLoS ONE, 2016).
Values after ≈ are worked out from the molar mass of the structure shown. Like-named read-outs stand apart in the source and are kept apart here. Marks after values point to notes of the source that are not given here. Where a SMILES comes first, the peptide text is derived from it. Where no end group is shown, it is not given here. [ ]: non-standard residue; d: D form. Phe(ol) = N[C@H](CO)Cc1ccccc1; Dap = NC[C@H](N)C(=O)O; Aib = CC(C)(N)C(=O)O

How the values were obtained:
[1] = tested on: S. aureus (MRSA) ATCC 43300; details: S. aureus (MRSA) ATCC 43300; 90 min incubation; average of 3 assays ± SD
Text: (§1) The bacterial strains; Fusobacterium nucleatum ATCC 25586, Streptococcus mutans Ingbritt, Staphylococcus aureus (MSSA) ATCC 29213; Staphylococcus aureus (MRSA) ATCC 43300; Enterococcus faecalis ATCC 29212; Enterobacter aerogenes ATCC 13048; Pseudomonas aeruginosa strain PAO1-LAC, ATCC 47085; Klebsiella pneumoniae ATCC 13883; Acinetobacter baumannii strain 2208, ATCC 19606; Escherichia coli ATCC 25922 lyophilised or glycerol stocks were obtained from the culture collection of the Oral Health Cooperative Research Centre, The Melbourne Dental School, University of Melbourne, Australia. These strains were selected for this study as they are widely used in antimicrobial studies and are considered to be important pathogens and major targets for antibiotic resistant studies. Bacteria were grown aerobically and maintained by passage at ambient temperature (E. coli, K. pneumoniae, A. baumannii and S. aureus strains) or at 37°C (P. aeruginosa, E. faecalis and E. aerogenes) on horse blood agar (10% v/v defibrinated horse blood, 4.4% w/v Oxoid Blood Agar Base No. 2). S. mutans and F. nucleatum were grown anaerobically (MK3 anaerobic workstation, Don Whitley Scientific Limited, England) and maintained by passage at 37°C on Todd Hewitt agar (3.6% w/v Oxoid Todd-Hewitt Broth, 1.5% w/v sucrose, 1.5% w/v BactoTM Agar, 0.8% w/v Oxoid Yeast Extract) or horse blood agar, respectively. For the antimicrobial peptide assays a 20 mL starter culture was produced by taking single colonies from blood or Todd Hewitt agar plates, respectively, to inoculate either: Luria Broth (LB; 1% w/v BactoTM Tryptone, 1% w/v NaCl, 0.5% w/v Oxoid Yeast Extract, pH 7.5, Thermo Scientific Pty, Ltd, Sydney, Australia) for bacteria; E. coli, K. pneumoniae, P. aeruginosa, A. baumannii, E. faecalis, E. aerogenes and S. aureus which were grown aerobically at 37°C, or Todd Hewitt broth (3.6% w/v Oxoid Todd-Hewitt Broth, 1.5% w/v sucrose, 0.8% w/v Oxoid Yeast 9 Extract) for S. mutans, or Brain Heart Infusion broth (BHI; 3.7% w/v Oxoid BHI, 0.05% w/v L-cysteine) for F. nucleatum which were both grown anaerobically at 37°C. After overnight incubation, 0.5–2.0 mL of the starter culture was used to inoculate the appropriate fresh broth (200 mL) and growth monitored at 650 nm using a spectrophotometer (model 275E; Perkin-Elmer, Sydney, Australia) with culture purity checked by microscopic examination and culture. Bacteria were harvested during late exponential growth phase and viability and bacteria/mL determined using a BacLight viability kit (Invitrogen, Sydney, Australia) and a Quanta SC-MPL flow cytometer (Beckman coulter Pty, Ltd, Sydney, Australia).
(§2) Antibacterial assays were undertaken to determinate the minimum inhibitory concentration (MIC), minimum bactericidal concentration (MBC) and minimum membrane disruptive concentration (MDC) of each of the antimicrobial peptides (AMP) and AMP analogues (S1 Table). For each bacterim a stock solution (2.5 × 10^6 cells/mL) in the respective media was made and an aliquot incubated with AMPs within 15 minutes from viable cell count and stock preparation. All AMPs were dissolved in DMSO and a 500 μM stock solution prepared by adding the respective media and serial dilutions (250–0.244 μM) of the AMP in media (100 μL/well) made just prior addition of bacteria. […] One hundred microliter aliquots of the bacterial stock solution (2.5 × 10^5 cells/well) were added to the AMP serial dilutions and incubated at 37°C for 90 min. Assay preparation and incubations were conducted in aerobic or anaerobic conditions dependent on the bacteria. Bacteria were also incubated in the absence of AMP to serve as a growth control for the assay. After the 90 minute incubation period the antimicrobial activity (MIC, MBC and MDC) was determined as follows;
(§3) For determination of MBC, the CLSI protocol was followed, with the modifications being that due to the rapid action of the AMPs the assay incubation time was shortened from 16–20 hours to 90 minutes.

[2] = tested on: E. faecalis ATCC 29212; details: E. faecalis ATCC 29212; 90 min incubation; average of 3 assays ± SD
Text: as §1, §2, §3

[3] = tested on: S. aureus (MSSA) ATCC 29213; details: S. aureus (MSSA) ATCC 29213; 90 min incubation; average of 3 assays ± SD
Text: as §1, §2, §3

[4] = tested on: E. coli ATCC 25922; details: E. coli ATCC 25922; 90 min incubation; average of 3 assays ± SD
Text: as §1, §2, §3

[5] = tested on: A. baumannii strain 2208, ATCC 19606; details: A. baumannii strain 2208, ATCC 19606; 90 min incubation; average of 3 assays ± SD
Text: as §1, §2, §3

[6] = tested on: E. aerogenes ATCC 13048; details: E. aerogenes ATCC 13048; 90 min incubation; average of 3 assays ± SD
Text: as §1, §2, §3

[7] = tested on: F. nucleatum ATCC 25586
Text: as §1, §2, §3

[8] = tested on: P. aeruginosa strain PAO1-LAC, ATCC 47085; details: P. aeruginosa PAO1-LAC, ATCC 47085; 90 min incubation; average of 3 assays ± SD
Text: as §1, §2, §3

[9] = tested on: K. pneumoniae ATCC 13883; details: K. pneumoniae ATCC 13883; 90 min incubation; average of 3 assays ± SD
Text: as §1, §2, §3

[10] = tested on: S. aureus (MRSA) ATCC 43300; details: S. aureus (MRSA) ATCC 43300; 90 min incubation; average of 3 assays ± SD; remark: listed apart in the source
Text: as §1, §2
(§4) For MIC the CLSI broth microdilution assay was followed as we have previously described.

[11] = tested on: E. faecalis ATCC 29212; details: E. faecalis ATCC 29212; 90 min incubation; average of 3 assays ± SD; remark: listed apart in the source
Text: as §1, §2, §4

[12] = tested on: S. aureus (MSSA) ATCC 29213; details: S. aureus (MSSA) ATCC 29213; 90 min incubation; average of 3 assays ± SD; remark: listed apart in the source
Text: as §1, §2, §4

[13] = tested on: E. coli ATCC 25922; details: E. coli ATCC 25922; 90 min incubation; average of 3 assays ± SD; remark: listed apart in the source
Text: as §1, §2, §4

[14] = tested on: A. baumannii strain 2208, ATCC 19606; details: A. baumannii strain 2208, ATCC 19606; 90 min incubation; average of 3 assays ± SD; remark: listed apart in the source
Text: as §1, §2, §4

[15] = tested on: E. aerogenes ATCC 13048; details: E. aerogenes ATCC 13048; 90 min incubation; average of 3 assays ± SD; remark: listed apart in the source
Text: as §1, §2, §4

[16] = tested on: P. aeruginosa strain PAO1-LAC, ATCC 47085; details: P. aeruginosa PAO1-LAC, ATCC 47085; 90 min incubation; average of 3 assays ± SD; remark: listed apart in the source
Text: as §1, §2, §4

[17] = tested on: K. pneumoniae ATCC 13883; details: K. pneumoniae ATCC 13883; 90 min incubation; average of 3 assays ± SD; remark: listed apart in the source
Text: as §1, §2, §4

[18] = F. nucleatum ATCC 25586, 90 min peptide/bacteria incubation, CFU on agar, ≥ 99.9% reduction, average of 3 assays ± SD

| Compound | MBC [1] | MBC [2] | MBC [3] | MBC [4] | MBC [5] | MBC [6] | MBC [7, 18] | MBC [8] | MBC [9] | MIC [10] | MIC [11] | MIC [12] | MIC [13] | MIC [14] | MIC [15] | MIC [16] | MIC [17] | MBC ([7]; ATCC 25586) | MBC ([7]; F. nucleatum ATCC 25586, 90 min peptide/bacteria incubation, CFU on agar, ≥ 99.9% reduction, average of 3 assays ± SD, listed as Native) |
| --- | --- | --- | --- | --- | --- | --- | --- | --- | --- | --- | --- | --- | --- | --- | --- | --- | --- | --- | --- |
| CC(=O)NC(C)(C)C(=O)N1CCC[C@H]1C(=O)NC(C)(C)C(=O)N[C@@H](C)C(=O)NC(C)(C)C(=O)N[C@@H](C)C(=O)N[C@@H](CCC(N)=O)C(=O)NC(C)(C)C(=O)N[C@H](C(=O)NC(C)(C)C(=O)NCC(=O)N[C@@H](CC(C)C)C(=O)NC(C)(C)C(=O)N1CCC[C@H]1C(=O)N[C@H](C(=O)NC(C)(C)C(=O)NC(C)(C)C(=O)N[C@@H](CCC(=O)O)C(=O)N[C@@H](CCC(N)=O)C(=O)N[C@H](CO)Cc1ccccc1)C(C)C)C(C)C [Alamethicin] (Ac-[Aib]P[Aib]A[Aib]AQ[Aib]V[Aib]GL[Aib]PV[Aib][Aib]EQ[Phe(ol)]; N-terminus assumed) | 59.2 ± 1.7 µM (≈ 116 µg/mL) | 48.1 ± 5.4 µM (≈ 94.5 µg/mL) | 27.9 ± 6.9 µM (≈ 54.8 µg/mL) | >250 µM | >250 µM | >250 µM | 18.0 ± 3.9 µM (≈ 35.4 µg/mL) | >250 µM | >250 µM | 50.8 ± 3.5 µM (≈ 99.8 µg/mL) | 30.1±9.6^e μM | 31.4 ± 7.4 µM (≈ 61.7 µg/mL) | >250 µM | 142.9±19.6^e μM | >250 µM | >250 µM | >250 µM | – | – |
| CC[C@H](C)[C@H](NC(=O)CN)C(=O)NCC(=O)N[C@@H](CN)C(=O)N[C@@H](Cc1ccccc1)C(=O)N[C@@H](CC(C)C)C(=O)N[C@@H](Cc1c[nH]cn1)C(=O)N[C@@H](CO)C(=O)N[C@@H](C)C(=O)N[C@@H](CN)C(=O)N[C@@H](CN)C(=O)N[C@@H](Cc1ccccc1)C(=O)NCC(=O)N[C@@H](CN)C(=O)N[C@@H](C)C(=O)N[C@@H](Cc1ccccc1)C(=O)N[C@H](C(=O)NCC(=O)N[C@@H](CCC(=O)O)C(=O)N[C@H](C(=O)N[C@@H](CCSC)C(=O)N[C@@H](CC(N)=O)C(=O)N[C@@H](CO)C(N)=O)[C@@H](C)CC)C(C)C [Magainin-Dap] (H-GIG[Dap]FLHSA[Dap][Dap]FG[Dap]AFVGEIMNS-NH2; N-terminus assumed) | – | – | – | – | – | – | – | – | – | – | – | – | – | – | – | – | – | 29.7±0.4^c μM | – |
| GIGKFLHSAKKFGKAFVGEIMNS-NH2 [Magainin II] | >250 µM | >250 µM | >250 µM | 48.1 ± 12.4 µM | 20.0 ± 1.0 µM | >250 µM | 8.1 ± 1.3 µM | 56.3 ± 4.2 µM | 142.3 ± 19.5 µM | >250 µM | >250 µM | >250 µM | 29.5±3.7^e μM | 15.1±1.53^e μM | >250 µM | 26.1±1.2^e μM | 132.2 ± 28.5 µM | – | 7.3 ± 1.0 µM |
| GIGRFLHSARRFGRAFVGEIMNS-NH2 [Magainin-Arg] | – | – | – | – | – | – | – | – | – | – | – | – | – | – | – | – | – | 2.5±0.8^c μM | – |
| GIGXFLHSAXXFGXAFVGEIMNS-CONH2 [Magainin-Orn] | – | – | – | – | – | – | 14.9 ± 0.2 µM | – | – | – | – | – | – | – | – | – | – | – | – |
